# Reference: patent US20110245323A1, “RIG-Like Helicase Innate Immunity Inhibits VEGF-Induced Tissue Responses” (Yale University, priority 2006, published 2011)
# Entries after “also recorded” stand apart in the source; their conditions may differ.
# Experiments:
# Assay type in all cases: in vivo, mouse
# [1] = tested on: CC10-rtTA-VEGF165 transgenic mice; assay: BAL inflammatory cell recovery, VEGF-induced inflammation
# Procedure: The CC10-rtTA-VEGF165 transgenic mice used in this study were generated and used as described previously (Lee et al., 2004, Nature Medicine 10:1095-103), which reference is incorporated herein in its entirety. These animals were housed under barrier conditions in the animal facility at Yale University School of Medicine. In these experiments 6-8 week old transgenic (Tg+) animals and their transgene negative littermate controls (Tg−) were randomized to receive water with doxycycline (dox) (0.5 mg/ml) or normal water. Two weeks later they were sacrificed and the VEGF-induced phenotype was evaluated as described below (Lee et al., 2004, Nature Medicine 10:1095-103).
# To define the effects of these agents on the tissue responses induced by VEGF, two experimental procedures were used. In the first, a pretreatment protocol was used. In these experiments the noted innate immunity agonist ([…] unless otherwise indicated) or its vehicle control (PBS) were administered intranasally and aspirated into the lungs of randomized Tg+ and Tg− mice starting one day before the Dox water treatment. The doses were administered to the mice every other day during the 2 week doxyxycline (dox) treatment interval.
# To determine if the innate immunity agonists altered established VEGF-induced tissue responses, a “post treatment” protocol was used in selected experiments. In these experiments the innate immunity agonist was administered 2 days or 14 days after the doxycycline and VEGF-induced responses were evaluated 2 weeks later.
# (§1) To define the effects of Poly(I:C) a number of protocols were employed. In most experiments, a pretreatment-2 week protocol was employed. In these experiments, WT and Tg+ mice were treated with Poly(I:C) (30 μg in 50 lambda unless otherwise indicated; Amersham Biosciences, N.J.) or vehicle control via nasal aspiration and transgene activation was accomplished via the administration of dox (0.5 mg/ml) in the animal's drinking water 24 hours later. The Poly(I:C) was administered every other day and the dox was administered continuously for up to 2 weeks.
# (§2) Lastly, in selected experiments post-transgene activation protocols were employed. In these experiments dox was administered for 2 days or 2 weeks. The Poly(I:C) was then administered via intranasal aspiration every other day for 2 weeks as disclosed elsewhere herein. In selected pre-treatment and post-transgene activation experiments, unmethylated CpG (CpG-B) (Keck Center, Yale University) was also employed at similar doses. At the end of these intervals, assessments of angiogenesis (anti-CD31 immunohistochemistry), vascular permeability (Evan's blue dye extravasation, wet to dry lung weight measurements, BAL protein concentration), BAL and tissue inflammatory cell infiltration and mucus metaplasia (periodic acid-Schiff (PAS) staining, MUC5AC immunoblotting) were undertaken. In all cases experiments were designed to compare Tg− and Tg+ mice on normal water and Tg− and Tg+ mice on dox water.
# Mice were sacrificed using intraperitoneal ketamine/xylazine injection and the trachea was cannulated and perfused with two 0.9 nil aliquots of cold saline. The cellular contents and BAL fluid were separated by centrifugation, the BAL cell number was quantitated and cell differential was assessed. The BAL fluid was stored in aliquots at −80° C.
# IFN-α and IFN-β = assay: BAL Type I IFNs by ELISA; details: WT (Tg−) and VEGF Tg+ animals
# Procedure: (§3) ELISA and activity assay kits for IFNa and IFNβ analysis were purchased from PBL Biomedical Laboratories (Piscataway, N.J.). ELISAs for eotaxin/CCL11, MCP-1/CCL2, KC/CXCL1 and MIP-2/CXCL14 were obtained from R&D Systems (Minneapolis, Minn. USA). Each was performed according to the manufacturer's instructions.
# transgenic hVEGF = assay: BAL levels of transgenic VEGF by ELISA; details: Tg+ mice, Poly(I:C) vs vehicle; doses <30 μg
# Excerpt: WT and CC10-rtTA-VEGF mice were used in these studies. The latter used the Clara cell 10-kDa protein (CC10) promoter and two transgenic constructs to target VEGF to the lung in an externally regulatable fashion. The human (h) VEGF165 transgene in these mice was activated via the administration of doxycycline (dox) as previously described (Lee et al., 2004, Nat Med 10:1095-1103). In the wild type (WT) mice on normal or dox water and the Tg+ mice on normal water, hVEGF levels in bronchoalveolar lavage fluids (BAL) were <10 pg/ml. Increased levels of BAL VEGF were noted within 24 hours and steady state levels between 0.5 and 1.2 ng/ml were seen after 1 week of dox administration (FIG. 28).
# as §1
# ELISA assay kits for VEGF and IL-13 were purchased from R&D Systems (Minneapolis, Minn.).
# [2] = tested on: CC10-rtTA-VEGF165 transgenic mice; assay: VEGF-induced vascular permeability (Evans blue dye extravasation, lung wet to dry weight ratio, BAL protein)
# Procedure: as §1, §2
# Lungs were excised en bloc and extrapulmonary tissues were removed. They were then weighed, placed in a desiccating oven at 65° C. for 48 hours and reweighed.
# In some instances, animal lungs were excised en bloc after intravascular perfusion and weighed. They were then put into a SpeedVac system (ThermoSavant; Milford, Mass.), desiccated at 60° C. overnight, and reweighed.
# Evans blue dye (EBD) (Sigma-Aldrich Inc.) in 0.9% saline at a concentration of 5 mg/ml was used to assess plasma leakage as previously described (Lee et al., 2004, Nat Med 10:1095-1103). The results are expressed as the ratio of the EBD absorbance at 620 nm of paired lung homogenates and serum.
# BAL was undertaken and protein levels were assessed using the Dc Protein Assay Kit (Bio-Rad Laboratories, Hercules, Calif.) according to manufacturer's instructions. The optical density of each sample was read at 750 nm wave length with a Smartspec 3000 Spectrophotometer (Bio-Rad Laboratories).
# [3] = tested on: KC/CXCL1 and MIP-2/CXCL14; assay: BAL neutrophil chemotactic chemokines by ELISA; details: Tg+ mice, pretreatment, 2 weeks
# Procedure: as §3
# [4] = tested on: CC10-rtTA-VEGF165 transgenic mice; assay: Lung tissue inflammation, histologic analysis; details: Tg+ mice, pretreatment, vs vehicle
# Procedure: The lungs were removed en bloc as described elsewhere herein, inflated at 25 cm pressure with PBS containing 0.5% low melting point agarose gel, fixed in Streck solution (Streck Laboratories, La Vista, Nebr.), embedded in paraffin, sectioned and stained. Hematoxylin and eosin and PAS stains were performed in the Research Histology Laboratory of the Department of Pathology at the Yale University School of Medicine. Pulmonary hemorrhage was evaluated by quantitating BAL red blood cell number with a Coulter counter (Beckman Coulter).
# [5] = Tg+ mice, pretreatment, vs vehicle
# [6] = pretreatment, highest dose tested
substance,measurement,setting,value
polyinosinic-polycytidylic acid [Poly(I:C)],"VEGF-induced inflammation, delayed administration","[1]; Tg+ mice, given 2 days (48 hours) or 14 days after transgene activation with dox",significant decrease; also recorded: significant regulation
same,"recovery of macrophages, eosinophils and lymphocytes during BAL","[1]; Tg+ mice, pretreatment, p<0.05",significantly decreased
same,BAL neutrophil accumulation,[1]; [5],increased
same,total recovery of inflammatory cells during BAL / VEGF-induced inflammation,[1]; [5],markedly decreased; also recorded: inhibited
same,Total cells (×10^4),"[1]; VEGF-induced tissue responses, TLR agonist administration, PBS control 50",22 ×10^4
same,lowest dose with significant alterations of VEGF-induced inflammation,[1]; pretreatment,5 µg
same,dose with maximal regulation of VEGF-induced inflammation,[1]; [6],30 µg
same,production of IFN-α and IFN-β in BAL,IFN-α and IFN-β,potent stimulator
same,levels of production of transgenic VEGF in BAL fluids,transgenic hVEGF,did not alter
same,Evan's blue dye leakage in lungs,[2]; [5],lower levels
same,"VEGF-induced permeability alterations (Evans blue dye extravasation, lung wet to dry weight ratios, BAL protein)",[2]; [5],inhibited
same,levels of protein in BAL fluids,[2]; [5],lower levels
same,"VEGF-induced vascular permeability alterations, delayed administration",[2]; given 48 hours or 14 days after dox-induced transgene activation,significant inhibition
same,lowest dose with significant inhibition of VEGF-induced permeability alterations,[2]; pretreatment,5 µg
same,dose with maximal inhibition of VEGF-induced permeability alterations,[2]; [6],30 µg
same,levels of KC/CXCL1 and MIP-2/CXCL14 in BAL,[3],significant increases
same,inflammatory cell accumulation in lung tissues,[4],lower levels of inflammation
